Assay results: US11267825B2 (AICURIS GMBH & CO. KG, priority 2017, dated 2022)

How the values were obtained:
HBV = assay: Determination of HBV DNA from the supernatants of HepAD38 cells (anti-HBV activity); assay type: cell-based, hepatitis B virus; conditions: Hepatitis B virus, 144 h; HBV DNA in HepAD38 supernatant at day 6; read-out: Cell Activity (EC50)
Outline: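 HepAD38 cells (60,000/well) were treated with half-log compound dilutions in tetracycline-free medium to induce HBV production. On day 6, HBV DNA was purified from filtered supernatant and quantified by real-time PCR against plasmid standards. EC50 values came from non-linear regression of relative copy numbers, typically from three experiments in triplicate.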

HBV core protein = HBV core protein (UniProt P03146); assay type: biochemical; conditions: read-out: Assembly Activity (IC50); BODIPY-FL labelled core protein, assembly started with NaCl, read after 6 min
Chain of HBV core protein (P03146 whole entry, looked up): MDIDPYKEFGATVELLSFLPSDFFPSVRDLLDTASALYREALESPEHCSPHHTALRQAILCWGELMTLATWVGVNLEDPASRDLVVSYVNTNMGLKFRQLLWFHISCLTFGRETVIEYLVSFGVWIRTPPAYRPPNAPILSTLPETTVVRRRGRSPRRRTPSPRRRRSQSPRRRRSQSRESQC
Outline: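 Fluorescence-quenching assembly assay using E. coli-expressed core protein 1–149 plus Cys150, labelled with BODIPY-FL maleimide, at 1.0–2.0 μM in 50 mM HEPES pH 7.5, 0.5% DMSO. Assembly started with NaCl to […]; fluorescence (ex 477/em 525 nm) read after 6 min. EC50 by non-linear regression, 8-point 0.5-log dilutions.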

Q: With `O=C(c1cc2ccccc2[nH]1)N1CCc2nc(NCC3CCNC3)sc2C1` (stereo not drawn) [Example 389, 5-(1H-indole-2-carbonyl)-N—[(pyrrolidin-3-yl)methyl]-4H,5H,6H,7H-[1,3]thiazolo[5,4-c]pyridin-2-amine] as the compound, how does the EC50 (HBV) read?
A: 1000 to 10000 nM

Q: And the IC50 (HBV core protein)?
A: < 5 µM

Q: What does the source list for `O=C(Nc1nc2c(s1)CN(C(=O)c1cc3ccccc3[nH]1)CC2)NS(=O)(=O)C1CC1` [Example 390, 3-(cyclopropanesulfonyl)-1-[5-(1H-indole-2-carbonyl)-4H,5H,6H,7H-[1,3]thiazolo[5,4-c]pyridin-2-yl]urea]?
A: EC50 (HBV): < 100000 nM; IC50 (HBV core protein): < 5 µM

Q: For `CC(=O)N1CCC(CNc2nc3c(s2)CN(C(=O)c2cc4ccccc4[nH]2)CC3)C1` (stereo not drawn) [Example 391, 1-[3-({[5-(1H-indole-2-carbonyl)-4H,5H,6H,7H-[1,3]thiazolo[5,4-c]pyridin-2-yl]amino}methyl)pyrrolidin-1-yl]ethan-1-one], which EC50 (HBV) is on record?
A: < 1000 nM

Q: And the IC50 (HBV core protein)?
A: < 5 µM

Q: How did the EC50 (HBV) turn out when `CC(C)(C)OC(=O)N1CCC(CNc2nc3c(s2)CN(C(=O)c2cc4ccccc4[nH]2)CC3)C1` (stereo not drawn) [Example 392, tert-butyl 3-({[5-(1H-indole-2-carbonyl)-4H,5H,6H,7H-[1,3]thiazolo[5,4-c]pyridin-2-yl]amino}methyl)pyrrolidine-1-carboxylate] was run?
A: < 1000 nM

Q: And the IC50 (HBV core protein)?
A: < 5 µM

Q: Which EC50 (HBV) does the source give for `CS(=O)(=O)NC(=O)Nc1nc2c(s1)CN(C(=O)c1cc3ccccc3[nH]1)CC2` [Example 393, 1-[5-(1H-indole-2-carbonyl)-4H,5H,6H,7H-[1,3]thiazolo[5,4-c]pyridin-2-yl]-3-methanesulfonylurea] here?
A: 1000 to 10000 nM

Q: What about the IC50 (HBV core protein) of the same compound?
A: 5 to 10 µM

Q: For `CCc1cc(F)cc2[nH]c(C(=O)N3CCc4nc(N[C@H]5CC[C@@H](O)CC5)sc4C3)cc12` [Example 394, (1s,4s)-4-{[5-(4-ethyl-6-fluoro-1H-indole-2-carbonyl)-4H,5H,6H,7H-[1,3]thiazolo[5,4-c]pyridin-2-yl]amino}cyclohexan-1-ol], which EC50 (HBV) is on record?
A: < 1000 nM

Q: And the IC50 (HBV core protein)?
A: < 5 µM

Q: For `O=C(c1cc2ccccc2[nH]1)N1CCc2nc(N[C@H]3CC[C@@H](O)C3)sc2C1` [Example 396, (1R,3S)-3-{[5-(1H-indole-2-carbonyl)-4H,5H,6H,7H-[1,3]thiazolo[5,4-c]pyridin-2-yl]amino}cyclopentan-1-ol], which EC50 (HBV) is on record?
A: < 1000 nM

Q: And the IC50 (HBV core protein)?
A: < 5 µM

Q: What does the source list for `CC(F)(F)c1cccc2[nH]c(C(=O)N3CCc4nc(NC(=O)C5CCOCC5)sc4C3)cc12` [Example 399, N-{5-[4-(1,1-difluoroethyl)-1H-indole-2-carbonyl]-4H,5H,6H,7H-[1,3]thiazolo[5,4-c]pyridin-2-yl}oxane-4-carboxamide]?
A: EC50 (HBV): 1000 to 10000 nM; IC50 (HBV core protein): < 5 µM

Q: `O=C(Nc1nc2c(s1)CN(C(=O)c1cc3c(C(F)F)cccc3[nH]1)CC2)C1CCOCC1` [Example 400, N-{5-[4-(difluoromethyl)-1H-indole-2-carbonyl]-4H,5H,6H,7H-[1,3]thiazolo[5,4-c]pyridin-2-yl}oxane-4-carboxamide] was tested. Which EC50 (HBV) did it give?
A: < 1000 nM

Q: And the IC50 (HBV core protein)?
A: < 5 µM

Q: Which results are given for `CC(F)(F)c1cc(F)cc2[nH]c(C(=O)N3CCc4nc(NC(=O)C5CCOCC5)sc4C3)cc12` [Example 401, N-{5-[4-(1,1-difluoroethyl)-6-fluoro-1H-indole-2-carbonyl]-4H,5H,6H,7H-[1,3]thiazolo[5,4-c]pyridin-2-yl}oxane-4-carboxamide]?
A: EC50 (HBV): < 1000 nM; IC50 (HBV core protein): < 5 µM

Q: Which EC50 (HBV) does the source give for `O=C(Nc1nc2c(s1)CN(C(=O)c1cc3c(C(F)F)cc(F)cc3[nH]1)CC2)C1CCOCC1` [Example 402, N-{5-[4-(difluoromethyl)-6-fluoro-1H-indole-2-carbonyl]-4H,5H,6H,7H-[1,3]thiazolo[5,4-c]pyridin-2-yl}oxane-4-carboxamide] here?
A: < 1000 nM

Q: What about the IC50 (HBV core protein) of the same compound?
A: < 5 µM

Q: For `CCc1cc(F)cc2[nH]c(C(=O)N3CCc4nc(NC(=O)C5CCOCC5)sc4C3)cc12` [Example 403, N-[5-(4-ethyl-6-fluoro-1H-indole-2-carbonyl)-4H,5H,6H,7H-[1,3]thiazolo[5,4-c]pyridin-2-yl]oxane-4-carboxamide], which EC50 (HBV) is on record?
A: < 1000 nM

Q: And the IC50 (HBV core protein)?
A: < 5 µM

Q: What does the source list for `O=C1CCC(CNc2nc3c(s2)CN(C(=O)c2cc4ccccc4[nH]2)CC3)N1` (stereo not drawn) [Example 404, 5-({[5-(1H-indole-2-carbonyl)-4H,5H,6H,7H-[1,3]thiazolo[5,4-c]pyridin-2-yl]amino}methyl)pyrrolidin-2-one]?
A: EC50 (HBV): < 1000 nM; IC50 (HBV core protein): < 5 µM

Q: Which EC50 (HBV) does the source give for `O=C(c1cc2ccccc2[nH]1)N1CCc2nc(NCC3(O)CC3)sc2C1` [Example 405, 1-({[5-(1H-indole-2-carbonyl)-4H,5H,6H,7H-[1,3]thiazolo[5,4-c]pyridin-2-yl]amino}methyl)cyclopropan-1-ol] here?
A: < 1000 nM

Q: And the IC50 (HBV core protein)?
A: < 5 µM

Q: Which EC50 (HBV) does the source give for `Nc1nc2c(s1)CN(C(=O)c1cc3ccc(Cl)c(F)c3[nH]1)CC2` [Example 407, 5-(6-chloro-7-fluoro-1H-indole-2-carbonyl)-4H,5H,6H,7H-[1,3]thiazolo[5,4-c]pyridin-2-amine] here?
A: < 1000 nM

Q: What about the IC50 (HBV core protein) of the same compound?
A: < 5 µM

Q: For `O=C(c1cc2c(C(F)F)cccc2[nH]1)N1CCc2nc(NCC3(O)CCC3)sc2C1` [Example 408, 1-[({5-[4-(difluoromethyl)-1H-indole-2-carbonyl]-4H,5H,6H,7H-[1,3]thiazolo[5,4-c]pyridin-2-yl}amino)methyl]cyclobutan-1-ol], which EC50 (HBV) is on record?
A: < 1000 nM

Q: What about the IC50 (HBV core protein) of the same compound?
A: < 5 µM

Q: `CN1CCC(C(=O)Nc2nc3c(s2)CN(C(=O)c2cc4ccccc4[nH]2)CC3)CC1` [Example 409, N-[5-(1H-indole-2-carbonyl)-4H,5H,6H,7H-[1,3]thiazolo[5,4-c]pyridin-2-yl]-1-methylpiperidine-4-carboxamide] was tested. Which EC50 (HBV) did it give?
A: < 1000 nM

Q: And the IC50 (HBV core protein)?
A: < 5 µM

Q: For `CC(=O)N1CCC(C(=O)Nc2nc3c(s2)CN(C(=O)c2cc4ccccc4[nH]2)CC3)CC1` [Example 410, 1-acetyl-N-[5-(1H-indole-2-carbonyl)-4H,5H,6H,7H-[1,3]thiazolo[5,4-c]pyridin-2-yl]piperidine-4-carboxamide], which EC50 (HBV) is on record?
A: < 1000 nM

Q: And the IC50 (HBV core protein)?
A: < 5 µM

Q: `O=C(Nc1nc2c(s1)CN(C(=O)c1cc3ccccc3[nH]1)CC2)C1CCC(O)CC1` (stereo not drawn) [Example 411, 4-hydroxy-N-[5-(1H-indole-2-carbonyl)-4H,5H,6H,7H-[1,3]thiazolo[5,4-c]pyridin-2-yl]cyclohexane-1-carboxamide] was tested. Which EC50 (HBV) did it give?
A: < 1000 nM

Q: What about the IC50 (HBV core protein) of the same compound?
A: < 5 µM

Q: `O=C1CC(C(=O)Nc2nc3c(s2)CN(C(=O)c2cc4ccccc4[nH]2)CC3)CCN1` (stereo not drawn) [Example 412, N-[5-(1H-indole-2-carbonyl)-4H,5H,6H,7H-[1,3]thiazolo[5,4-c]pyridin-2-yl]-2-oxopiperidine-4-carboxamide] was tested. Which EC50 (HBV) did it give?
A: < 1000 nM

Q: And the IC50 (HBV core protein)?
A: < 5 µM

Q: With `CC(C)OC1(CNc2nc3c(s2)CN(C(=O)c2cc4ccccc4[nH]2)CC3)CCC1` [Example 413, 5-(1H-indole-2-carbonyl)-N-{[1-(propan-2-yloxy)cyclobutyl]methyl}-4H,5H,6H,7H-[1,3]thiazolo[5,4-c]pyridin-2-amine] as the compound, how does the EC50 (HBV) read?
A: < 1000 nM

Q: What about the IC50 (HBV core protein) of the same compound?
A: < 5 µM

Q: What does the source list for `COC1(CNc2nc3c(s2)CN(C(=O)c2cc4ccccc4[nH]2)CC3)CCC1` [Example 414, 5-(1H-indole-2-carbonyl)-N-[(1-methoxycyclobutyl)methyl]-4H,5H,6H,7H-[1,3]thiazolo[5,4-c]pyridin-2-amine]?
A: EC50 (HBV): < 1000 nM; IC50 (HBV core protein): < 5 µM

Q: How did the EC50 (HBV) turn out when `O=C(c1cc2ccccc2[nH]1)N1CCc2nc(NC3CC(F)(F)C3)sc2C1` [Example 416, N-(3,3-difluorocyclobutyl)-5-(1H-indole-2-carbonyl)-4H,5H,6H,7H-[1,3]thiazolo[5,4-c]pyridin-2-amine] was run?
A: < 1000 nM

Q: What about the IC50 (HBV core protein) of the same compound?
A: 5 to 10 µM

Q: For `CCNC(=O)C1(CNc2nc3c(s2)CN(C(=O)c2cc4ccccc4[nH]2)CC3)CCC1` [Example 417, N-ethyl-1-({[5-(1H-indole-2-carbonyl)-4H,5H,6H,7H-[1,3]thiazolo[5,4-c]pyridin-2-yl]amino}methyl)cyclobutane-1-carboxamide], which EC50 (HBV) is on record?
A: < 1000 nM

Q: And the IC50 (HBV core protein)?
A: < 5 µM

Q: How did the EC50 (HBV) turn out when `O=C(c1cc2ccccc2[nH]1)N1CCc2nc(NCC3CCC3)sc2C1` [Example 418, N-(cyclobutylmethyl)-5-(1H-indole-2-carbonyl)-4H,5H,6H,7H-[1,3]thiazolo[5,4-c]pyridin-2-amine] was run?
A: < 1000 nM

Q: And the IC50 (HBV core protein)?
A: 5 to 10 µM

Q: Which EC50 (HBV) does the source give for `O=C(c1cc2ccccc2[nH]1)N1CCc2nc(NC3(c4ccccc4)CC3)sc2C1` [Example 419, 5-(1H-indole-2-carbonyl)-N-(1-phenylcyclopropyl)-4H,5H,6H,7H-[1,3]thiazolo[5,4-c]pyridin-2-amine] here?
A: < 1000 nM

Q: And the IC50 (HBV core protein)?
A: 5 to 10 µM

Q: Which results are given for `CNC(=O)C1(CNc2nc3c(s2)CN(C(=O)c2cc4ccccc4[nH]2)CC3)CCC1` [Example 428, 1-({[5-(1H-indole-2-carbonyl)-4H,5H,6H,7H-[1,3]thiazolo[5,4-c]pyridin-2-yl]amino}methyl)-N-methylcyclobutane-1-carboxamide]?
A: EC50 (HBV): < 1000 nM; IC50 (HBV core protein): < 5 µM

Q: How did the EC50 (HBV) turn out when `O=C(c1cc2ccccc2[nH]1)N1CCc2nc(NC3CCC3)sc2C1` [Example 429, N-cyclobutyl-5-(1H-indole-2-carbonyl)-4H,5H,6H,7H-[1,3]thiazolo[5,4-c]pyridin-2-amine] was run?
A: < 1000 nM

Q: What about the IC50 (HBV core protein) of the same compound?
A: < 5 µM

Q: Which EC50 (HBV) does the source give for `O=C(c1cc2ccccc2[nH]1)N1CCc2nc(NC3(c4c[nH]nn4)CC(F)(F)C3)sc2C1` [Example 430, N-[3,3-difluoro-1-(1H-1,2,3-triazol-4-yl)cyclobutyl]-5-(1H-indole-2-carbonyl)-4H,5H,6H,7H-[1,3]thiazolo[5,4-c]pyridin-2-amine] here?
A: < 1000 nM

Q: What about the IC50 (HBV core protein) of the same compound?
A: < 5 µM

Q: Which results are given for `O=C(c1cc2ccccc2[nH]1)N1CCc2nc(NCC3(c4ccccn4)CCC3)sc2C1` [Example 432, 5-(1H-indole-2-carbonyl)-N-{[1-(pyridin-2-yl)cyclobutyl]methyl}-4H,5H,6H,7H-[1,3]thiazolo[5,4-c]pyridin-2-amine]?
A: EC50 (HBV): < 1000 nM; IC50 (HBV core protein): < 5 µM
